Laboratory results from ChEMBL document CHEMBL3352019, “Recent developments in biological activities of chalcones: a mini review” (Eur J Med Chem, 2014).
Values after ≈ are worked out from the molar mass of the structure shown.

How the values were obtained:
MDA-MB-231 = test: Anticancer activity against human MDA-MB-231 cells; assay type: functional, cell-based
Plasmodium falciparum [1] = test: Antimalarial activity against Plasmodium falciparum asexual blood stage forms; assay type: functional, organism-based
Plasmodium falciparum [2] = test: Antimalarial activity against Plasmodium falciparum K1; assay type: functional, organism-based
Klebsiella aerogenes = test: Antimicrobial activity against Enterobacter aerogenes by cup-plate agar diffusion method; assay type: functional
Staphylococcus aureus [3] = test: Antimicrobial activity against Staphylococcus aureus by cup-plate agar diffusion method; assay type: functional
Aspergillus niger [4] = test: Antimicrobial activity against Aspergillus niger by cup-plate agar diffusion method; assay type: functional
Bacillus = test: Antimicrobial activity against Bacillus coccus by cup-plate agar diffusion method; assay type: functional
Escherichia coli [5] = test: Antimicrobial activity against Escherichia coli at 50 ug/mL; assay type: functional; conditions: read-out: IZ
Bacillus subtilis [6] = test: Antimicrobial activity against Bacillus subtilis at 50 ug/mL; assay type: functional; conditions: read-out: IZ
Bacillus pumilus = test: Antimicrobial activity against Bacillus pumilus at 50 ug/mL; assay type: functional; conditions: read-out: IZ
Aspergillus niger [7] = test: Antimicrobial activity against Aspergillus niger at 50 ug/mL; assay type: functional; conditions: read-out: IZ
Bacillus subtilis [8] = test: Antimicrobial activity against Bacillus subtilis; assay type: functional
Penicillium chrysogenum = test: Antimicrobial activity against Penicillium chrysogenum; assay type: functional
Candida albicans = test: Antimicrobial activity against Candida albicans; assay type: functional
Escherichia coli [9] = test: Antimicrobial activity against Escherichia coli; assay type: functional
Rattus norvegicus [10] = test: Inhibition of inflammation in rat carrageenan-induced rat hind paw edema model; assay type: functional
Rattus norvegicus [11] = test: Inhibition of inflammation in rat carrageenan-induced rat acute paw edema model; assay type: functional
Leishmania major = test: Antiprotozoal activity against Leishmania major promastigote forms; assay type: functional, organism-based
[12] = Antioxidant activity assessed as […] free radical scavenging activity; assay type: physicochemical
Micrococcus luteus = test: Antimicrobial activity against Micrococcus luteus; assay type: functional
[13] = system: Staphylococcus epidermidis; test: Antimicrobial activity against Staphylococcus epidermidis; assay type: functional
Plasmodium falciparum [14] = test: Antimalarial activity against CQ-resistant Plasmodium falciparum W2; assay type: functional, organism-based
Rattus norvegicus [15] = organism: Rattus norvegicus; test: Inhibition of inflammation in rat cotton pellet-induced granuloma model; assay type: functional
[16] = Anticancer activity against human HSC3 cells; assay type: functional, cell-based; conditions: HSC-3
Staphylococcus aureus [17] = test: Antimicrobial activity against Staphylococcus aureus; assay type: functional

Molecule: O=C(/C=C/c1cccc(Br)c1)C1=Cc2cc(Cl)ccc2OC1
- IC50 (MDA-MB-231): 7.02 µM

Molecule: COc1ccc(/C=C/C(=O)c2ccc(-n3cnc4ccccc43)cc2)c(OC)c1
- IC50 (Plasmodium falciparum [1]): 1.1 µg/mL (≈ 2.86 µM)

Molecule: COc1ccc(/C=C/C(=O)c2c(O)cccc2O)cc1
- IC50 (Plasmodium falciparum [2]): 7.4 µM

Molecule: COc1ccc(C(=O)/C=C/c2c(-c3ccc(Br)cc3)nc3ccccn23)cc1
- inhibition zone (IZ) (Klebsiella aerogenes): 19 mm

Molecule: O=C(/C=C/c1c(-c2ccc(Br)cc2)nc2ccccn12)c1ccc(Cl)cc1
- inhibition zone (IZ) (Staphylococcus aureus [3]): 19 mm

Molecule: Cc1ccc(C(=O)/C=C/c2c(-c3ccc(Br)cc3)nc3ccccn23)c(O)c1
- inhibition zone (IZ) (Aspergillus niger [4]): 20 mm
- inhibition zone (IZ) (Bacillus): 19 mm

Molecule: COc1ccc(/C=C/C(=O)c2ccc(Cl)cc2Cl)cc1
- zone of inhibition at 50 µg/mL (Escherichia coli [5]): 15 mm
- zone of inhibition at 50 µg/mL (Bacillus subtilis [6]): 13 mm
- zone of inhibition at 50 µg/mL (Bacillus pumilus): 8 mm

Molecule: O=C(/C=C/c1cccc2ccccc12)c1ccc(Cl)cc1Cl
- zone of inhibition at 50 µg/mL (Aspergillus niger [7]): 12 mm

Molecule: C[C@]12CC[C@H]3[C@@H](CC=C4CC(O)CC[C@@]43C)[C@@H]1CC[C@@H]2C(=O)/C=C/c1ccccc1 (some centres undefined)
- inhibition zone (IZ) (Bacillus subtilis [8]): 19 mm
- inhibition zone (IZ) (Penicillium chrysogenum): 10 mm

Molecule: O=C(/C=C/c1ccccc1)N1N=C(c2ccc(Cl)cc2)CC1c1c2ccccc2cc2ccccc12 (centres undefined)
- inhibition zone (IZ) (Candida albicans): 12 mm
- inhibition zone (IZ) (Escherichia coli [9]): 22 mm

Molecule: O=C(/C=C/c1ccccc1)c1nn(-c2ccccc2)c(-c2ccccc2)c1S(=O)(=O)c1ccccc1
- inhibition (INH) (Rattus norvegicus [10]): 83.77%

Molecule: Cc1nc2ccc(Cl)cc2c(-c2ccccc2)c1C(=O)/C=C/c1ccco1
- inhibition (INH) (Rattus norvegicus [11]): 81.78%

Molecule: COc1ccc2c(c1)C=C(C(=O)/C=C/c1ccc(Cl)c(Cl)c1)CO2
- IC50 (Leishmania major; Leishmania major): < 1 µM

Molecule: COc1ccc2c(c1)C=C(/C=C/C(=O)c1ccc(Cl)c(Cl)c1)CO2
- IC50 (Leishmania major; Leishmania major): < 1 µM

Molecule: C=CCc1ccc(/C=C/C(=O)c2cc(C)ccc2O)cc1O
- inhibition (INH) [12]: 89.64%

Molecule: COc1ccc(/C=C/C(=O)c2ccc(OC)c(CC=C(C)C)c2O)cc1
- MIC (Bacillus subtilis [8]; Bacillus subtilis): 2000 µg/mL (≈ 5670 µM)
- MIC (Micrococcus luteus): 2000 µg/mL (≈ 5670 µM)
- MIC [13]: 2000 µg/mL (≈ 5670 µM)

Molecule: COc1ccc(/C=C/C(=O)c2ccccc2)cc1S(=O)(=O)N1CCOCC1
- IC50 (Plasmodium falciparum [14]): 2.06 µM

Molecule: O=C(/C=C/c1ccc(F)cc1)c1ccc(O)cc1
- inhibition (INH) (Rattus norvegicus [15]): 36.8%

Molecule: COc1cc(O)c(C(=O)/C=C/c2ccccc2)c(OC)c1 [FLAVOKAWAIN B]
- IC50 [16]: 4.9 µg/mL (≈ 17.2 µM)

Molecule: O=C(/C=C/c1ccc(O)cc1)c1ccc(O)cc1O [ISOLIQUIRITIGENIN]
- MIC (Staphylococcus aureus [17]): 15.6 µg/mL (≈ 60.9 µM)

Molecule: C=CC(C)(C)c1cc(/C=C/C(=O)c2ccc(O)cc2)c(OC)cc1O [LICOAGROCHACONE A]
- IC50 (Plasmodium falciparum [1]): 1.43 µg/mL (≈ 4.23 µM)

Molecule: MEGLUMINE ANTIMONATE
- IC50 (Leishmania major): < 82 µM
